The values that follow come from patent publication US20140329863A1 (priority 2011, published 2014).

Molecules are shown by their SMILES. ≈ marks a conversion by molar mass, not a printed value. Like-named read-outs stand apart in the source and are kept apart here. Where only a bound is given, the exact number is not on record here.

A word on the EC50: it is the concentration giving half of the maximal effect. By Cmax is commonly meant the highest concentration seen after dosing. One may read the Tmax as the time at which the peak concentration occurs. As usually defined, the Kp is tissue or fluid exposure divided by exposure in the circulation. What is called AUC(0-t) is exposure summed from dosing to a finite time, without extrapolation to infinity. A high value points to more exposure. The solubility is how much of the substance goes into solution per volume. The low end stands for a poorly soluble substance, the high end for a readily soluble substance. By bioavailability is commonly meant dose-corrected exposure relative to a reference, in per cent. A high value points to much systemic uptake. As usually defined, the Papp A→B is how fast a substance crosses the layer from the apical side. Lower therefore signals poor permeation. Broadly, the Papp B→A is how fast a substance crosses the layer from the basolateral side.

The test system of data set [1] is PrP^Sc in dividing ScN2a-c13 cells. To be noted: read-out: EC50 (ELISA), reduction of PrP^Sc load; dividing ScN2a-c13 cells.
A short description of data set [2]: Single-dose pharmacokinetics in FVB mice (oral gavage, IV).
The nature of data set [3]: Hepatic microsomal stability, dog. Type of data set: in vitro ADME. To be noted: for half-life at 1 μM: beagle, liver microsomes, pH 7.4. How it is done:
These were diluted 500-fold into 1 mL of microsomal incubation mixture to yield a final concentration of 1 μM. The incubation mixture was composed of 100 mM phosphate buffer, pH 7.4, and NADPH regenerating system (BD Biosciences NADPH Regenerating System Solutions A & B). This mixture was preincubated at 37° C. for 5 min in an Eppendorf Thermo mixer, and the reaction initiated by addition of 0.5 mg (25 μl of a 20 mg/mL solution) of liver microsomes. Aliquots (100 μl) were withdrawn at 0, 5, 15, 30, and 60 min, and added to […] ACN containing internal standard. […] The percentage of solute remaining at the end of the incubation was used to determine species-specific values of scaled intrinsic clearance, hepatic clearance, and predicted hepatic extraction based upon the calculations below (Obach, 1999).
for which mg microsomal protein/gm liver was 45 for all species, and gm liver/kg body weight were 32 for dog, 88 for mouse, 40 for rat and 25 for human.
for which ER estimates the amount of compound cleared during a single pass through the liver (Low ER <0.3, moderate ER 0.3-0.7, high ER>0.7).
In general terms: Liver microsomes are vesicles of endoplasmic reticulum, rich in cytochrome P450 enzymes.

The next data set in a line: in vitro. To be noted: dog, MDCK-MDR1.
Where [4] appears, read: IV 1 mg/kg, plasma, female FVB mice.
Setting [5] is: PO 40 mg/kg, brain, female FVB mice.
Setting [6] is: female, FVB, mouse, brain, po, 40 mg/kg.
[7] abbreviates: female, FVB, mouse, brain/plasma, po, 40 mg/kg.
The mark [8] stands for this setting: female, FVB, mouse, plasma, po, 40 mg/kg.
[9] abbreviates: female, FVB, mouse, plasma, po, 40 mg/kg, t1/2, PO 40 mg/kg, female FVB mice.
Setting [10] is: female dog microsomes, read-out: t1/2 Dog Female.
[11] abbreviates: male dog microsomes, read-out: t1/2 Dog Male.
The mark [12] stands for this setting: female, FVB, mouse, plasma, iv, 1 mg/kg.

In the case of `C(=N\Nc1ccc(-c2cnco2)cc1)/c1ccncc1` [IND54304, reference compound], the EC50 in data set [1] was 400 nM. Moreover, in data set [2] (setting [4]), the AUClast was 219 ± 33.0 ng·h/mL, the Cmax was 466 ± 37.4 ng/mL, the Tmax came out at 4.98 min and the t1/2 is 12.6 min. For the same compound, the “% F” value in data set [2] (PO 40 mg/kg vs IV 1 mg/kg, plasma, female FVB mice) is 24.8%. In data set [2] (setting [5]), this compound gave an AUClast of 282 ± 27.2 ng·h/g. In data set [2] (setting [6]), the highest level (Cmax) was 123 ± 42.7 ng/g and the Tmax was found to be 120 min. Also, in data set [2] (setting [7]), the Kp worked out at 0.52. In data set [2] (setting [8]), the AUC(0-t) was 544 ± 16.8 ng·h/mL, the concentration peaked (Cmax) at 220 ± 99.4 ng/mL and the Tmax amounted to 30 min. Moreover, the half-life in data set [2] (setting [9]) is 60 min. For the same compound, the half-life at 1 μM in data set [3] (setting [10]) worked out at 16 min. In data set [3] (setting [11]), the half-life at 1 μM came out at 20 min. In addition, in data set [3] (female dog microsomes), the “Hepatic Extraction Ratio Dog Female” value was 0.80. For the same compound, the “Hepatic Extraction Ratio Dog Male” value in data set [3] (male dog microsomes) is on record as 0.79.

For the compound `Cc1ccnc(Nc2nc(-c3ccc(-c4ccccn4)s3)cs2)c1` [IND81, (4-Methyl-pyridin-2-yl)-[4-(5-pyridin-2-yl-thiophen-2-yl)-thiazol-2-yl]-amine], the “solubility in FaSSIF (in words)” value (fasted-state simulated intestinal fluid) is given as “lower solubility”. Besides, the “solubility at pH 2.0 (in words)” value (pH 2 (HCl) buffer) is reported as “higher solubility”. Further, the AUClast in data set [2] (setting [5]) was 1592 ± 794 ng·h/g. Also, the Kp came out at 5.5 in data set [2] (female, FVB, mouse, brain and plasma, po, 10 mg/kg); 5.53 in data set [2] (setting [7]). In addition, the Cmax stood at 568 ± 186 ng/g in data set [2] (setting [6]), 183 ± 96.6 ng/mL in data set [2] (setting [12]) and 152 ± 10.6 ng/mL in data set [2] (setting [8]). In addition, the Tmax is 30 min in data set [2] (setting [6]), 4.98 min in data set [2] (setting [12]) and 30 min in data set [2] (setting [8]). In addition, the AUC(0-t) was 106 ± 12.4 ng·h/mL in data set [2] (setting [12]) and 288 ± 136 ng·h/mL in data set [2] (setting [8]). The half-life was 70.2 min in data set [2] (female, FVB, mouse, plasma, iv, 1 mg/kg, t1/2, IV 1 mg/kg, female FVB mice) and 58.2 min in data set [2] (setting [9]). Also, the bioavailability in data set [2] (female, FVB, mouse, plasma, po, 10 mg/kg) was 25 to 27%; in data set [2] (setting [8]) it was 27.2%. Besides, the “Brain exposure (AUClast) ranking” value in data set [2] (single oral dose, FVB mice, brain) is “highest AUC values in brain”. The half-life at 1 μM is 26 min in data set [3] (setting [10]) and 23 min in data set [3] (setting [11]). Also, the solubility was 3 µM (≈ 1.05 µg/mL) in the data set “physchem” (FaSSIF); 207 µM (≈ 72.5 µg/mL) in the data set “physchem” (cell culture media, plasma or biological fluid); 78 µM (≈ 27.3 µg/mL) in the data set “physchem” (pH 2 (HCl) buffer, pH 2, simulated gastric fluid); < 1 µM in “physchem” (pH 7.4 (phosphate) buffer, pH 7.4, aqueous buffer). Besides, the Papp A→B in the data set “in vitro” is 16 ×10⁻⁶ cm/s. This compound also displayed a Papp B→A in the data set “in vitro” of 20.9 ×10⁻⁶ cm/s.
